Series [1] concerns ApoE-/- mice. The series is described as follows: Glucose tolerance testing and serum insulin in high fat diet ApoE-/- mice. Type of series: in vivo, mouse. An excerpt:
One example of a disease that is particularly amenable to treatment using a peptide of the present developments may be type 2 diabetes. In type 2 diabetes, glucose tolerance is reduced, insulin sensitivity is decreased, and plasma insulin levels are increased. Consequently, control of inflammatory cells and cell signaling via CD40-CD154 interaction may be able to be used to control, modulate, reduce and/or reverse type 2 diabetes symptoms that are characterized as by glucose intolerance, insulin resistance, and increased plasma insulin levels. Several murine models of T2D and/or atherosclerosis have been developed. For initial studies, ApoE−/− mice were selected due to their ability to develop type 2 diabetes from a high fat diet. Glucose tolerance and insulin testing were performed on all of the mice. The mice were administered the 6-mer peptide (SEQ ID NO:29) at a rate of 1 mg/kg weekly via I.V, injection and monitored. […] Thus, one embodiment of the present developments is a method to prevent type 2 diabetes in an individual at risk for developing type 2 diabetes, the method comprising administering to the individual a peptide to selectively bind to a CD40 expressing cell. In such an embodiment, the peptide may be selected from SEQ ID NOS: 3-9 and 24-30.
ApoE−/− mice were fed a 60% high fat diet (research diet) for 1 week. A select population of mice were then injected with 6-mer peptide at a dose of 1 mg/kg and others were untreated and tracked as controls. Glucose tolerance testing (GTT) was performed by fasting 6 hours, followed by intraperitoneal injection of 1 g/kg body weight glucose in water. Both blood glucose and blood serum insulin were measured at 0, 15 minutes, 30 minutes, 60 minutes, and 2 hours.

Series [2] has as its system ApoE-/- mice. The series is described as follows: LDL cholesterol in ApoE-/- mice. Type of series: in vivo, mouse. Conditions: 1 mg/kg IV once a week for 4 weeks. As for the experimental part: In this study, six ApoE−/− mice received a normal chow diet from 0 to 20 weeks of age. At 20 weeks of age, three mice were randomly assigned to receive dose of 1 mg/kg of KGYY6 (6-mer-SEQ ID NO:29) by IV tail injection, once a week for a period of 4 weeks. Control mice received vehicle only.

In series [3] the test system is Th40 cells. The series is described as follows: Cytokine production of splenic lymphocytes (Th40 cells) treated in vitro, flow cytometry. Type of series: cell-based, mouse. Conditions: splenic lymphocytes of ApoE-/- and C57BL/6 mice, 24 hours in vitro, varying concentrations. As for the experimental part: Spleens from ApoE mice and C57BL/6 mice were processed for lymphocytes. ApoE−/− and C57BL/6 mice were fed a 60% high fat diet (research diet) for 1 week. Splenic lymphocytes were treated with 6-mer in vitro for 24 hours. Cells were placed in media overnight in the presence of varying concentrations of 6-mer peptides. The following morning. Brefeldin A was administered for 4 hours. All cells were stained for CD3, CD4, CD40 (Th40 cells) and measured by use of flow cytometry for their production of IL2, INFγ, and IL17a.
For orientation: Flow cytometry measures light scatter and fluorescence of single cells or particles in a stream.

Series [4] concerns ApoE-/- mice. The series is described as follows: Atherosclerotic changes in high fat diet ApoE-/- mice (Sudan IV en-face, Paigen method, trichrome). Type of series: in vivo, mouse. As for the experimental part: ApoE−/− mice were fed a high fat diet for 16 weeks. Mice were randomly assigned to receive dose of 1 mg/kg of KGYY6 (6-mer-SEQ ID NO:29) by IV tail injection, once a week for a period of 4 weeks. Control mice received vehicle only. Atherosclerosis was investigated by several methods. […] FIG. 28A is an image of KGYY6 treated aortic en-face Sudan IV staining and FIG. 28B is an image of control (untreated) aortic en-face Sudan staining.
Further, measurement of plaque area and morphology was performed using the Paigen method. This method obtains sequential 5 μm aortic cross sections from the aortic root beginning at the valve leaflets into the ascending aorta. At 50 μm intervals, slides are stained after which the area of atherosclerotic lesion is measured. Individual plaque area measurements are plotted against the micrometer intervals and a curve is established, with the area under the curve (AUC) giving the total volume of plaque.

Series [5] deals with GLUT4. The series can be described thus: Western analysis of GLUT4 in adipose and muscle tissue of treated mice. Type of series: in vivo, mouse. Conditions: treated versus untreated mice. An excerpt: GLUT4 is responsible for glucose uptake in response to insulin and known to have reduced expression in type 2 diabetes.
The test system of series [6] is NOD mice. The series can be described thus: Development of diabetes in NOD mice treated with CD154 peptides. Conditions: 25 ug (1 mg/kg) tail vein weekly from 6 weeks of age. Type of series: in vivo, mouse. As for the experimental part:
(§1) Peptides were designed based on the amino acid sequence of mouse CD154 protein (SEQ ID NO:1) in the SwissPro database. […] Weekly after the initial injection, another 25 ug of peptide (or 100 ul of saline in the case of the Control mice) was injected into the tail vein. At 10 weeks of age, mice were monitored for diabetes, as indicated by a blood glucose level greater than 250 mg/dL for three consecutive days. During this time, blood was also taken from the tail vein, or by sub-mandibular venal puncture, and the level of CD4+ and CD8+ cells determined by flow cytometry using antibodies for CD4 protein and CD8 protein.

The subject of series [7] is human B cells. Conditions: cited from earlier work.
The subject of series [8] is ApoE deficient mice. The series can be described thus: Atherosclerosis in ApoE deficient mice, lesser curvature of the aortic arch. Type of series: in vivo, mouse. Conditions: 1 mg/kg IV three times a week from 9 weeks of age, normal chow. Here is the method: ApoE deficient mice on a normal chow diet were selected to receive a dose of 1 mg/kg of the 15-mer peptide (SEQ ID NO: 7) by IV tail injection, three times a week over a period of […], beginning at 9 weeks of age and also utilized a control. At 25 weeks, the animals were euthanized, weighed, and then had blood, spleen, and pancreas removed for analysis. The subjects were then perfused through cardiac puncture with 4% paraformaldehyde. Aortic arches were dissected, dehydrated in sucrose gradient and then flash frozen.
FIG. 17 provides an example of the lesser curvature of the aortic arch, defined proximally from the aortic outflow (AO). Of the segments seen in the trichrome stain, an intimal distance of […] was measured distally. The aortic-arch wall area subtended by this 2.5 mm stretch of the intima was calculated for each section of all mice, with maximal area of the inner-aortic-arch wall of each mouse used to compute averages per group. The luminal surface (L), aortic arch (AO), and innominate artery (I) are labelled in this FIG. 17.
Plaque was subdivided based on morphology of early lesions (observable as fatty streaks containing macrophage derived foam cells with varying degrees of lipid accumulation) compared with more advanced fibroatheromas (containing varying degrees of lipid or necrotic core and fibrous caps). […]

Series [9] has as its system NOD mice. The series can be described thus: CD4/CD8 ratio in blood of treated NOD mice by flow cytometry. Type of series: in vivo, mouse. Conditions: 25 ug (1 mg/kg) tail vein weekly. As for the experimental part:
as §1

Series [10] concerns CD40+ T-cells. The series is described as follows: Binding of FITC-labeled 15-mer peptide to Th40 cells, flow cytometry. Conditions: lymphocytes of 9 week old NOD mice. The arrangement: species or system mouse. Here is the method:
Total lymphocytes were isolated from 9 week old NOD mice. The lymphocytes were incubated with anti-CD4, anti-CD8, anti-CD40 and an FITC-labeled 15-mer peptide, and then analyzed by flow cytometry. Cells were gated for CD4 (both CD4hi and CD4lo populations were included) and CD40 versus the 15-mer peptide.

The test system of series [11] is ApoE-/- mice. The series can be described thus: Existing atherosclerotic disease in ApoE-/- mice, plaque cap and core measurements. Type of series: in vivo, mouse. Conditions: 1 mg/kg IV once a week for 4 weeks from 20 weeks of age. Here is the method:
In this study, six ApoE−/− mice received a normal chow diet from 0 to 20 weeks of age. At 20 weeks of age, three mice were randomly assigned to receive dose of 1 mg/kg of KGYY15 (15-mer-SEQ ID NO:7) by IV tail injection, once a week for a period of 4 weeks. Control mice received vehicle only. After 4 weeks of treatment, animals were euthanized then perfused through cardiac puncture with 4% paraformaldehyde. Aortic arches were dissected in surcrose gradient and flash frozen. Approximately fifty, 8 um longitudinal sections were obtained per mouse. Slides were treated with trichrome stain and analyzed using cellSens software for measurements. Total plaque was measured including 2.5 mm lesser curvature and innominate artery.

Series [12] has as its system B cells. The series can be described thus: Binding of FITC-labeled 15-mer peptide to B cells, flow cytometry. Conditions: spleen B cells of NOD mice, 90% CD40 positive. The arrangement: species or system mouse. As for the experimental part: B cells were isolated from the spleens of NOD mice. Sorted MHC-II+ cells were purified from total lymphocytes. Cells were stained with FITC-labeled 15 mer peptide, anti-CD40, and B cell markers CD19 and CD21. MHC-II+ cells were gated for CD19+ and CD21+ and then 15-mer peptide versus CD40 antibody was measured.

A short description of series [13]: Clot study of whole human blood in the presence of peptide. Conditions: dosing levels similar to murine studies. Here is the method:
Whole human blood was administered the peptide in accordance with similar dosing levels to those used for murine studies.

In series [14] the test system is blood cells. The series is described as follows: Binding of biotin-conjugated 15-mer peptide to whole blood cells, HRP-avidin absorbance at 405 nm. The arrangement: species or system human. Conditions: 1 ml whole blood. As for the experimental part: 1 ml of whole blood was obtained from each individual and incubated with biotin-conjugated, 15-mer peptide. The cells were then exposed to horseradish peroxidase (HRP)-avidin, washed and the absorbance at 405 nm determined using a spectrophotometer.

Series [15] concerns NOD mice. The series is described as follows: Reversal of hyperglycemia in newly diabetic NOD mice. Type of series: in vivo, mouse. Here is the method: Six mice from Example 1 that were not treated were allowed to subsequently develop diabetes. These mice were injected intravenously with 100 ug of the 15-mer peptide. These mice were then given weekly injections of the 15-mer peptide into their tail veins, and their blood glucose levels monitored twice-weekly. The 15-mer peptide was administered for a total of ten weeks, after which the treatment was stopped.
(§2) At the onset of diabetes, six NOD mice were injected with […] of the 15-mer peptide, resulting in the reversal of hyperglycemia in 80% of the recipients. Six weeks after reversal of hyperglycemia, mice were sacrificed, and the pancreas removed for analysis. The pancreas was fixed, sectioned and then stained using an aldehyde/fuschsin stain that allows detection of insulin granules. Granulation of the tissue was scored as follows: 4=completely granulated; 3=75% of islet granulated; 2=50% of islet granulated, and peri-insulitis; 1=25% of islet granulated; 0=no insulin granules detected.

For series [16], the system named is NOD mice. The series is described as follows: Insulin granulation of the pancreas in NOD mice, aldehyde/fuschsin stain. Type of series: in vivo, mouse. Conditions: six weeks after reversal of hyperglycemia; versus irrelevant peptide. Here is the method: as §2
Where [17] appears, read: high fat diet 16 weeks, 1 mg/kg IV once a week for 4 weeks.
Where [18] appears, read: trichrome staining, Image Pro Plus analysis.

A value given as a limit tells only on which side of the number the result lay.

With “AKKGYY [KGYY6, 6-mer peptide from CD154]”, in series [1] (1 mg/kg), the “insulin sensitivity compared to controls” value is “significantly improved” and the “plasma insulin levels compared to controls” value is listed as “lowered”. The “insulin resistance compared to controls” value in series [1] (1 mg/kg weekly I.V.) is recorded as “improve”. The “glucose tolerance compared to controls” value in series [1] (1 mg/kg, GTT 1 g/kg glucose i.p. after 6 hours fasting) is reported as “significantly increased”. The “reduction in LDL cholesterol values versus untreated mice” value in series [2] was more than 50%. Also, in [3], the “inflammatory cytokine production of IL2, INFγ, and IL17a” value is given as “affects”. In series [4] (setting [17]), the “lesion areas, en-face Sudan IV stain” value is “significant reduction” and the “plaque volume (area under the curve, Paigen method)” value is recorded as “reduction”. Also, in [4] (setting [18]), the “plaque composition: collagen” value is reported as “increased” and the “plaque composition: smooth muscle content” value is “reduced”. For the same compound, in series [5], the “expression of GLUT4 in muscle tissue” value was “increased expression” and the “expression of GLUT4 in white adipose tissue” value is “increase in expression”.

Consider “VLQWAKKGYYTMK [13-mer peptides, 13-mer peptide derived from the CD154 protein]”, for which the “development of diabetes (blood glucose greater than 250 mg/dL for three consecutive days)” value in series [6] is given as “significant effects on the development of diabetes”.

For the compound `Cc1ccc(C(=O)Nc2ccc(S(=O)(=O)O)c3cc(S(=O)(=O)O)cc(S(=O)(=O)O)c23)cc1NC(=O)c1cccc(NC(=O)Nc2cccc(C(=O)Nc3cc(C(=O)Nc4ccc(S(=O)(=O)O)c5cc(S(=O)(=O)O)cc(S(=O)(=O)O)c45)ccc3C)c2)c1` [suramin], the “CD154-induced proliferation of human B cells” value in series [7] is reported as “prevented”.

As for “VLQWAKKGYYTMKSN (VLQWAKKGYYTMKSK) [15-mer peptide, 15-mer peptide derived from the mouse CD154 protein]”, in [8], the “total area of the 2.5 mm segment of the aortic-arch wall” value was “substantially reduced”; the “total number of plaque (early lesions and advanced plaque)” value is “significantly decreased”. In addition, the “compromise of the immune system as determined by the CD4/CD8 ratio” value in series [9] is on record as “did not result in compromise of the immune system”. The “CD40+ T-cells that bind the peptide” value in series [10] was 90%. In [11], the “average cap width (cap size)” value is on record as “greater”; the “average core width (core size/plaque size)” value is listed as “decreased”; the “cap to core ratio of advanced plaques” value was “reduced”; the “number of individual early plaques and advanced plaques” value was “reduced”. Further, in series [12], the “B cells that bound the peptide” value came out at 8%. Besides, in series [13], the “clotting of whole human blood” value is “does not modify or change the clotting”. Besides, in [14], the “peptide binding activity of blood cells, type-I diabetes patients versus non-diabetic controls” value was “higher”. In series [6], the “development of diabetes (blood glucose greater than 250 mg/dL for three consecutive days)” value is “prevented the onset of diabetes”. Moreover, the “reversal of hyperglycemia in already diabetic mice” value in series [15] (100 ug IV then weekly injections for ten weeks) was “can reverse hyperglycemia”. The “recipients with reversal of hyperglycemia” value in series [15] (six NOD mice injected with 100 ug/ml at the onset of diabetes) is on record as 80%. The “return of hyperglycemia after cessation of the treatment” value in series [15] (treatment stopped after ten weeks) is reported as not above 5 weeks. Further, the “insulin granules in the pancreas” value in [16] is on record as “preserved insulin granules in the majority of the mice”.

Values taken from patent US12428465B2, “Therapeutic peptides and methods for treating type 2 diabetes” (OP-T LLC, priority 2018, dated 2025).
